In the supplement of paper PMC11061612:

Legend:
[1] = compound: C1CC(C1)(C(=O)[O-])C(=O)[O-].N.N.[Pt+2] [Carboplatin]; details: max 10 µM
Summary of the method: (§1)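 Plates with 1536 wells received cancer cell lines in 7.5 μl of DMEM/F12 or RPMI containing 10% FBS. After 24 hours at 37°C and 5% CO2, cells were dosed for 72 hours with final DMSO typically 0.2%, and viability was read by CellTiter-Glo 2.0 luminescence scaled between blank-well and DMSO-well means. The single-agent IC50 was taken from a logistic fit of the dose responses made with a non-linear mixed effects model, that logistic curve having two parameters.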

[2] = compound: C1CN(CCC1(C(=O)N[C@@H](CCO)C2=CC=C(C=C2)Cl)N)C3=NC=NC4=C3C=CN4 [AZD5363]; details: max 10 µM
Summary of the method: as §1

[3] = compound: C=CCn1c(=O)c2cnc(Nc3ccc(N4CCN(C)CC4)cc3)nc2n1-c1cccc(C(C)(C)O)n1 [AZD1775]; details: max 3 µM
Summary of the method: as §1

[4] = compound: CC(=O)Nc1cccc(-n2c(=O)n(C3CC3)c(=O)c3c(Nc4ccc(I)cc4F)n(C)c(=O)c(C)c32)c1 [Trametinib]; details: max 1 µM
Summary of the method: as §1

[5] = compound: CC(=O)O[C@H]1C(=O)[C@@]2(C)[C@H]([C@H](OC(=O)c3ccccc3)[C@]3(O)C[C@H](OC(=O)[C@H](O)[C@@H](NC(=O)c4ccccc4)c4ccccc4)C(C)=C1C3(C)C)[C@]1(OC(C)=O)CO[C@@H]1C[C@@H]2O [Paclitaxel]; details: max 3 µM
Summary of the method: as §1

[6] = compound: CC(=O)c1c(C)c2cnc(Nc3ccc(N4CCNCC4)cn3)nc2n(C2CCCC2)c1=O [Palbociclib]; details: max 10 µM
Summary of the method: as §1

[7] = compound: CC(C)n1c(=O)n(C)c2cnc3cc(F)c(-c4ccc(OCCCN5CCCCC5)nc4)cc3c21 [AZD1390]; details: max 0.3 µM
Summary of the method: as §1

[8] = compound: CC1(C)CCC(CN2CCN(c3ccc(C(=O)NS(=O)(=O)c4ccc(NCC5CCOCC5)c([N+](=O)[O-])c4)c(Oc4cnc5[nH]ccc5c4)c3)CC2)=C(c2ccc(Cl)cc2)C1 [Venetoclax]; details: max 1 µM
Summary of the method: as §1

[9] = compound: CC1=C(C(=CC=C1)Cl)NC(=O)C2=CN=C(S2)NC3=CC(=NC(=N3)C)N4CCN(CC4)CCO [Dasatinib]; details: max 2 µM
Summary of the method: as §1

[10] = compound: CC1=CN2[C@@H](C1)C=NC3=CC(=C(C=C3C2=O)OC)OCCCCCOC4=C(C=C5C(=C4)N=C[C@@H]6CC(=CN6C5=O)C)OC [SG3199]; details: max 0.001 µM
Summary of the method: as §1

[11] = compound: CCN(CCO)CCCOc1ccc2c(Nc3cc(CC(=O)Nc4cccc(F)c4)[nH]n3)ncnc2c1 [AZD2811]; details: max 1 µM
Summary of the method: as §1

[12] = compound: CCc1c2c(nc3ccc(O)cc13)-c1cc3c(c(=O)n1C2)COC(=O)[C@]3(O)CC [SN-38]; details: max 0.3 µM
Summary of the method: as §1

[13] = compound: CN(C)CCCOc1ccc(-c2ccc3ncc4c(c3c2)n(C2CCOCC2)c(=O)n4C)cn1 [AZD0156]; details: max 3 µM
Summary of the method: as §1

[14] = compound: CN(CC[C@H](CSC1=CC=CC=C1)NC2=C(C=C(C=C2)S(=O)(=O)NC(=O)C3=CC=C(C=C3)N4CCC(CC4)[C@H](C5=CC=CC=C5C6=CC=C(C=C6)Cl)O)S(=O)(=O)C(F)(F)F)CCO [AZD4320]; details: max 1 µM
Summary of the method: as §1

[15] = compound: COc1cc(Nc2ncc3c(n2)-c2ccc(Cl)cc2C(c2c(F)cccc2OC)=NC3)ccc1C(=O)O [Alisertib]; details: max 10 µM
Summary of the method: as §1

[16] = compound: COc1cc([C@@H]2c3cc4c(cc3[C@@H](O[C@@H]3O[C@@H]5CO[C@@H](C)O[C@H]5[C@H](O)[C@H]3O)[C@H]3COC(=O)[C@H]23)OCO4)cc(OC)c1O [Etoposide]; details: max 10 µM
Summary of the method: as §1

[17] = compound: COc1cc2ncnc(Nc3ccc(F)c(Cl)c3)c2cc1OCCCN1CCOCC1 [Gefitinib]; details: max 10 µM
Summary of the method: as §1

[18] = compound: COc1cccc(OCCCN)c1-c1cc(Nc2cnc(C#N)cn2)n[nH]1 [Prexasertib]; details: max 1 µM
Summary of the method: as §1

[19] = compound: COc1cccc2c1C(=O)c1c(O)c3c(c(O)c1C2=O)C[C@@](O)(C(=O)CO)C[C@@H]3O[C@H]1C[C@H](N)[C@H](O)[C@H](C)O1 [Doxorubicin]; details: max 1 µM
Summary of the method: as §1

[20] = compound: COc1nnc2ccc(N3CCC(c4ccc(OCCN5CCN(C)C(=O)[C@H]5C)cc4)CC3)nn12 [AZD5153]; details: max 1 µM
Summary of the method: as §1

[21] = compound: CS(=O)(=O)CCNCc1ccc(-c2ccc3ncnc(Nc4ccc(OCc5cccc(F)c5)c(Cl)c4)c3c2)o1 [Lapatinib]; details: max 10 µM
Summary of the method: as §1

[22] = compound: C[C@@H](Nc1cc(F)cc(F)c1)c1cc(C(=O)N(C)C)cc2c(=O)cc(N3CCOCC3)oc12 [AZD8186]
Summary of the method: as §1

[23] = compound: C[C@@H](Oc1cc(-c2cnn(C3CCNCC3)c2)cnc1N)c1c(Cl)ccc(F)c1Cl [Crizotinib]; details: max 10 µM
Summary of the method: as §1

[24] = compound: C[C@@H](c1ccc2nccn2c1)n1nnc2ncc(-c3cnn(C)c3)nc21 [Savolitinib]; details: max 1 µM
Summary of the method: as §1

[25] = compound: C[C@@H]1COCCN1C2=NC(=NC(=C2)C3(CC3)[S@](=N)(=O)C)C4=C5C=CNC5=NC=C4 [AZD6738]; details: max 10 µM
Summary of the method: as §1

[26] = compound: Cc1c2c(nn1C)CSCc1cc(n(C)n1)CSc1cc(c3ccccc3c1)OCCCc1c(C(=O)O)n(C)c3c-2c(Cl)ccc13 [AZD5991]; details: max 1 µM
Summary of the method: as §1

[27] = compound: Cc1cc2ncnn2cc1Nc1ncc2c(n1)n(C1CCOCC1)c(=O)n2C [AZD7648]; details: max 10 µM
Summary of the method: as §1

[28] = compound: Cc1nc(-c2cn3c(n2)-c2ccc(-c4cnn(C(C)(C)C(N)=O)c4)cc2OCC3)n(C(C)C)n1 [Taselisib]; details: max 10 µM
Summary of the method: as §1

[29] = compound: Cn1cnc2c(F)c(Nc3ccc(Br)cc3Cl)c(C(=O)NOCCO)cc21 [Selumetinib]; details: max 10 µM
Summary of the method: as §1

[30] = compound: N#Cc1cnc(Nc2cc(NC[C@H]3CNCCO3)c(C(F)(F)F)cn2)cn1 [SRA737]; details: max 10 µM
Summary of the method: as §1

[31] = compound: NC1(c2ccc(-c3nc4ccn5c(=O)[nH]nc5c4cc3-c3ccccc3)cc2)CCC1 [MK-2206]; details: max 10 µM
Summary of the method: as §1

[32] = compound: Nc1ccn([C@@H]2O[C@H](CO)[C@@H](O)C2(F)F)c(=O)n1 [Gemcitabine]; details: max 0.3 µM
Summary of the method: as §1

[33] = compound: O=C(Nc1ccc2[nH]nc(-c3ccncc3)c2c1)[C@@H]1CCN(CC(=O)N2CCN(c3ccc(-c4ncccn4)cc3)CC2)C1; details: max 5 µM
Summary of the method: as §1

[34] = compound: O=C(c1cc(Cc2n[nH]c(=O)c3ccccc23)ccc1F)N1CCN(C(=O)C2CC2)CC1 [Olaparib]; details: max 10 µM
Summary of the method: as §1

[35] = compound: O=c1[nH]cc(F)c(=O)[nH]1 [5-Fluorouracil]; details: max 20 µM
Summary of the method: as §1

[36] = compound: C1CN(CCC1(C(=O)N[C@@H](CCO)C2=CC=C(C=C2)Cl)N)C3=NC=NC4=C3C=CN4 [Capivasertib]; details: max 10 µM
Summary of the method: as §1

| Cell Line | IC50, cell viability 72 h [1] | IC50, cell viability 72 h [2] | IC50, cell viability 72 h [3] | IC50, cell viability 72 h [4] | IC50, cell viability 72 h [5] | IC50, cell viability 72 h [6] | IC50, cell viability 72 h [7] | IC50, cell viability 72 h [8] | IC50, cell viability 72 h [9] | IC50, cell viability 72 h [10] | IC50, cell viability 72 h [11] | IC50, cell viability 72 h [12] | IC50, cell viability 72 h [13] | IC50, cell viability 72 h [14] | IC50, cell viability 72 h [15] | IC50, cell viability 72 h [16] | IC50, cell viability 72 h [17] | IC50, cell viability 72 h [18] | IC50, cell viability 72 h [19] | IC50, cell viability 72 h [20] | IC50, cell viability 72 h [21] | IC50, cell viability 72 h ([22]; max 10 µM) | IC50, cell viability 72 h [23] | IC50, cell viability 72 h [24] | IC50, cell viability 72 h [25] | IC50, cell viability 72 h [26] | IC50, cell viability 72 h [27] | IC50, cell viability 72 h [28] | IC50, cell viability 72 h [29] | IC50, cell viability 72 h [30] | IC50, cell viability 72 h [31] | IC50, cell viability 72 h [32] | IC50, cell viability 72 h [33] | IC50, cell viability 72 h [34] | IC50, cell viability 72 h [35] | IC50, cell viability 72 h [36] | IC50, cell viability 72 h ([22]; max 3 µM) |
| --- | --- | --- | --- | --- | --- | --- | --- | --- | --- | --- | --- | --- | --- | --- | --- | --- | --- | --- | --- | --- | --- | --- | --- | --- | --- | --- | --- | --- | --- | --- | --- | --- | --- | --- | --- | --- | --- |
| COR-L279 (Small Cell Lung Carcinoma) | > 10 µM | 9.25 µM | 1.6 µM | > 1 µM | < 0.003 µM | > 10 µM | > 0.3 µM | > 1 µM | > 2 µM | > 0.001 µM | 0.093 µM | 0.00169 µM | > 3 µM | 0.198 µM | 0.952 µM | 0.843 µM | > 10 µM | 0.0979 µM | 0.0421 µM | 0.178 µM | 6.64 µM | 7.51 µM | 3.71 µM | > 1 µM | 7.38 µM | > 1 µM | > 10 µM | 2.13 µM | > 10 µM | > 10 µM | 3.15 µM | 0.0346 µM | > 5 µM | 3.43 µM | > 20 µM |  |  |
| CW-2 (Colorectal Carcinoma) | > 10 µM | > 10 µM | 2.72 µM | > 1 µM | 1.59 µM | > 10 µM | > 0.3 µM | > 1 µM | > 2 µM | > 0.001 µM | > 1 µM | 0.15 µM | > 3 µM | > 1 µM | > 10 µM | > 10 µM | > 10 µM | > 1 µM | > 1 µM | 0.861 µM | > 10 µM | > 10 µM | > 10 µM | > 1 µM | > 10 µM | > 1 µM | > 10 µM | > 10 µM | > 10 µM | > 10 µM | > 10 µM | 0.246 µM | > 5 µM | > 10 µM | > 20 µM |  |  |
| DMS-114 (Small Cell Lung Carcinoma) | > 10 µM | > 10 µM | > 3 µM | > 1 µM | 0.132 µM | > 10 µM | > 0.3 µM | > 1 µM | > 2 µM | > 0.001 µM | > 1 µM | 0.23 µM | > 3 µM | > 1 µM | > 10 µM | > 10 µM | > 10 µM | > 1 µM | > 1 µM | 0.688 µM | > 10 µM | > 10 µM | > 10 µM | > 1 µM | > 10 µM | 0.782 µM | > 10 µM | 5.19 µM | > 10 µM | > 10 µM | > 10 µM | > 0.3 µM | > 5 µM | > 10 µM | > 20 µM |  |  |
| H9 (T-Cell Non-Hodgkin's Lymphoma) |  |  | 0.416 µM | 0.00271 µM |  | > 10 µM | > 0.3 µM | > 1 µM | > 2 µM | > 0.001 µM | 0.026 µM | 0.00662 µM | > 3 µM | 0.142 µM | 0.115 µM |  | 7.12 µM | 0.00726 µM | 0.0838 µM | 0.00623 µM | 9.54 µM |  | 2.36 µM | > 1 µM | 1.31 µM | 0.413 µM | > 10 µM | > 10 µM | 0.0536 µM |  | 0.818 µM |  |  | > 10 µM |  | 3.07 µM | > 3 µM |
| IM-95 (Gastric Carcinoma) |  |  | > 3 µM | > 1 µM |  | > 10 µM | > 0.3 µM | > 1 µM | > 2 µM | > 0.001 µM | > 1 µM | > 0.3 µM | > 3 µM | 0.398 µM | > 10 µM |  | > 10 µM | > 1 µM | > 1 µM | > 1 µM | > 10 µM |  | > 10 µM | > 1 µM | > 10 µM | 0.276 µM | > 10 µM | 7.24 µM | > 10 µM |  | > 10 µM |  |  | > 10 µM |  | > 10 µM | > 3 µM |
